Active and inactive are the calls of the source. The calls are words filed in the database; no cut-off is given here.
Legend:
PC12 [1] = assay: Activation of Nrf2-ARE pathway in rat PC-12 cells assessed as increase in NQO1 expression level at 2.5 to 10 uM incubated for 12 hrs by Western blot analysis; type: cell-based; details: filed as activator, dose 2.5-10 µM
PC12 [2] = assay: Activation of Nrf2-ARE pathway in rat PC-12 cells assessed as increase in HO-1 expression level at 2.5 to 10 uM incubated for 6 hrs by Western blot analysis; type: cell-based; details: filed as activator, dose 2.5-10 µM
PC-12 [3] = assay: Neuroprotective activity against rat PC12 cells assessed as decrease in H2O2-induced intracellular Ca2+ level at 10 uM preincubated for 12 hrs followed by replacement with fresh media and H2O2 stimulation for 12 hrs by Fluo-3 AM based flow cytometry relative to control; type: functional; set-up: scale not given: the % may be the effect or the level left
[4] = Toxicity in okadaic acid-induced cognitive impairment ICR mouse model assessed as body weight change at 0.08 to 0.24 mg/kg, iv twice at 3days interval before and after okadaic acid stimulation measured upto 14 days; type: organism-based; details: in vivo, 336 h, dose 0.08-0.24 mg/kg, time < 14 day
PC-12 [5] = assay: Anti-apoptotic activity against H2O2-induced apoptosis in rat PC12 cells assessed as living cells at 2.5 uM preincubated for 12 hrs followed by replacement with fresh media and H2O2 stimulation for 12 hrs by Annexin-V/7-AAD staining based flow cytometry (Rvb=92.9%); type: functional
PC12 [6] = assay: Activation of Nrf2-ARE pathway in rat PC-12 cells assessed as increase in Nrf2 expression level at 2.5 to 10 uM incubated for 12 hrs by Western blot analysis; type: cell-based; details: filed as activator, dose 2.5-10 µM
PC-12 [7] = assay: Neuroprotective activity against rat PC12 cells assessed as decrease in H2O2-induced intracellular ROS production at 2.5 to 10 uM preincubated for 12 hrs followed by replacement with fresh media and H2O2 stimulation for 12 hrs by DCFH-DA staining based flow cytometry; type: functional, cell-based; details: dose 2.5-10 µM
PC-12 [8] = assay: Neuroprotective activity against rat PC12 cells assessed as decrease in H2O2-induced intracellular Ca2+ level at 2.5 uM preincubated for 12 hrs followed by replacement with fresh media and H2O2 stimulation for 12 hrs by Fluo-3 AM based flow cytometry relative to control; type: functional; set-up: scale not given: the % may be the effect or the level left
PC-12 [9] = assay: Neuroprotective activity against H2O2-induced cytotoxicity in rat PC12 cells assessed as increase in cell viability at 10 uM pretreated with Brusatol for 1hrs and preincubated for 12 hrs followed by replacement with fresh media and H2O2 stimulation for 12 hrs by MTT assay; type: functional, cell-based
[10] = molecular target: T1, Glycogen synthase kinase-3 beta (Homo sapiens, UniProt P49841); assay: Inhibition of human GSK-3beta overexpressed in human HEK293T cells assessed as decrease in Tau phosphorylation at s396 at 0.625 to 10 uM incubated for 24 hrs by Western blot analysis; type: cell-based; details: dose 0.625-10 µM
T1 sequence (P49841 whole entry, looked up): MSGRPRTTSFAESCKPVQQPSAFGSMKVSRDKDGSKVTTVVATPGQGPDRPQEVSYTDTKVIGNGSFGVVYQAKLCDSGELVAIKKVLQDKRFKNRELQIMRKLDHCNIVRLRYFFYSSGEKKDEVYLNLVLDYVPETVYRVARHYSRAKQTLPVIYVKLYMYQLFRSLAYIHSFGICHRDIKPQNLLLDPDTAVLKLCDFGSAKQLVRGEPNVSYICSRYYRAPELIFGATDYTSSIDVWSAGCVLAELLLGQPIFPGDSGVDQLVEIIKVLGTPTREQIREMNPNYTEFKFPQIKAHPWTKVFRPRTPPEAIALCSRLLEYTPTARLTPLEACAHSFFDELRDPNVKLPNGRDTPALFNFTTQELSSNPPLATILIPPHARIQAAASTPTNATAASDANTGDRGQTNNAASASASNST

[11] = molecular target: T1, Glycogen synthase kinase-3 beta; assay: Inhibition of human GSK-3beta overexpressed in human HEK293T cells assessed as decrease in Tau phosphorylation at t205 at 0.625 to 10 uM incubated for 24 hrs by Western blot analysis; type: cell-based; details: dose 0.625-10 µM
PC-12 [12] = assay: Anti-apoptotic activity against H2O2-induced apoptosis in rat PC12 cells assessed as living cells at 5 uM preincubated for 12 hrs followed by replacement with fresh media and H2O2 stimulation for 12 hrs by Annexin-V/7-AAD staining based flow cytometry (Rvb=92.9%); type: functional
PC-12 [13] = assay: Anti-apoptotic activity against H2O2-induced apoptosis in rat PC12 cells assessed as early apoptotic cells at 10 uM preincubated for 12 hrs followed by replacement with fresh media and H2O2 stimulation for 12 hrs by Annexin-V/7-AAD staining based flow cytometry (Rvb=0.8%); type: functional

COc1ccc(-c2ocnc2C(=O)NCCCc2ccc(NC(=O)/C=C/c3cc(C(C)(C)C)c(O)c(C(C)(C)C)c3)cc2)cc1Cl
Activity (PC12 [1]): Dose-Dependent Effect | Activity (PC12 [2]): Dose-Dependent Effect | Activity (PC-12 [3]): 31.1% | Activity [4]: Non-Toxic | Activity (PC-12 [5]): 76.8% | Activity (PC12 [6]): Dose-Dependent Effect | Activity (PC-12 [7]): Dose-Dependent Effect | Activity (PC-12 [8]): 24.5% | Activity (PC-12 [9]): inactive | inhibition [10]: Dose-Dependent Effect | inhibition [11]: Dose-Dependent Effect | Activity (PC-12 [12]): 93.1% | Activity (PC-12 [13]): 2%

Reference: ChEMBL document CHEMBL5370539, “Oxazole-4-carboxamide/butylated hydroxytoluene hybrids with GSK-3β inhibitory and neuroprotective activities against Alzheimer's disease” (Eur J Med Chem, 2023)
